Source: PubChem BioAssay AID248 (DTP/NCI, 2004)
Inconclusive results and toxic doses are left out. Rule as the data show it: active = T/C of 150% or more; inactive = T/C below 125%.

Tested on: L1210 leukemia ip in BDF1 mice, survival T/C
Test: NCI In Vivo Anticancer Drug Screen. Data for tumor model L1210 Leukemia (intraperitoneal) in B6D2F1 (BDF1) mice
Settings: endpoint: mean survival time, higher = longer survival
Summary of the method: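 Transplantable tumor model; survival measured in treated vs vehicle control mice. Value = treated/control.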

[1] = dose: 100.0 mg/kg/injection, schedule: Q04DX003 (ip), vehicle: Klucel (hydroxypropylcellulose) (HPC)
[2] = dose: 200.0 mg/kg/injection, schedule: Q04DX003 (ip), vehicle: Klucel (hydroxypropylcellulose) (HPC)
[3] = dose: 400.0 mg/kg/injection, schedule: Q04DX003 (ip), vehicle: Klucel (hydroxypropylcellulose) (HPC)
[4] = dose: 10.0 mg/kg/injection, schedule: Q01DX001 (ip), vehicle: saline
[5] = dose: 20.0 mg/kg/injection, schedule: Q01DX001 (ip), vehicle: saline
[6] = dose: 100.0 mg/kg/injection, schedule: Q01DX001 (ip), vehicle: carboxymethylcellulose (CMC)
[7] = dose: 200.0 mg/kg/injection, schedule: Q01DX001 (ip), vehicle: carboxymethylcellulose (CMC)
[8] = dose: 400.0 mg/kg/injection, schedule: Q01DX001 (ip), vehicle: carboxymethylcellulose (CMC)
[9] = dose: 100.0 mg/kg/injection, schedule: Q01DX001 (ip), vehicle: saline
[10] = dose: 200.0 mg/kg/injection, schedule: Q01DX001 (ip), vehicle: saline
[11] = dose: 400.0 mg/kg/injection, schedule: Q01DX001 (ip), vehicle: saline
[12] = dose: 100.0 mg/kg/injection, schedule: Q04DX003 (ip), vehicle: saline with Tween-80
[13] = dose: 100.0 mg/kg/injection, schedule: Q01DX009 (ip), vehicle: Klucel (hydroxypropylcellulose) (HPC)
[14] = dose: 200.0 mg/kg/injection, schedule: Q01DX009 (ip), vehicle: Klucel (hydroxypropylcellulose) (HPC)
[15] = dose: 100.0 mg/kg/injection, schedule: Q04DX002 (ip), vehicle: Klucel (hydroxypropylcellulose) (HPC)
[16] = dose: 200.0 mg/kg/injection, schedule: Q04DX002 (ip), vehicle: Klucel (hydroxypropylcellulose) (HPC)
[17] = dose: 400.0 mg/kg/injection, schedule: Q04DX002 (ip), vehicle: Klucel (hydroxypropylcellulose) (HPC)
[18] = dose: 100.0 mg/kg/injection, schedule: Q04DX003 (ip), vehicle: saline
[19] = dose: 200.0 mg/kg/injection, schedule: Q04DX003 (ip), vehicle: saline
[20] = dose: 400.0 mg/kg/injection, schedule: Q04DX003 (ip), vehicle: saline
[21] = dose: 100.0 mg/kg/injection, schedule: Q01DX009 (ip), vehicle: saline
[22] = dose: 200.0 mg/kg/injection, schedule: Q01DX009 (ip), vehicle: saline
[23] = dose: 200.0 mg/kg/injection, schedule: Q01DX001 (ip), vehicle: Klucel (hydroxypropylcellulose) (HPC)

Measured: T/C

CC(=O)Nc1ccc(OC(=O)Nc2cccc3ccccc23)cc1
inactive: [1] 89 % of control | [2] 96 % of control

CCOC(=O)C1(C(=O)OCC)CCC(OCC)N1C(=O)c1cc2c(cc1[N+](=O)[O-])OCO2 (centres undefined)
inactive: [1] 99 % of control | [2] 105 % of control | [3] 97 % of control

CC(C)(C)C1COC(=O)C1 (centres undefined)
inactive: [4] 103 % of control | [5] 98 % of control

OC(C=C(C(F)(F)F)C(F)(F)F)c1cccc(Cl)c1 (centres undefined)
inactive: dose: 100.0 mg/kg/injection, schedule: Q04DX003 (sc), vehicle: olive oil, sesame oil, peanut oil 97 % of control | dose: 200.0 mg/kg/injection, schedule: Q04DX003 (sc), vehicle: olive oil, sesame oil, peanut oil 95 % of control | dose: 400.0 mg/kg/injection, schedule: Q04DX003 (sc), vehicle: olive oil, sesame oil, peanut oil 91 % of control

CCOC(=O)CC(C)NC1CCCCC1 (centres undefined)
inactive: dose: 100.0 mg/kg/injection, schedule: Q01DX Z (ip), vehicle: methylcellulose (MC) 92 % of control | dose: 200.0 mg/kg/injection, schedule: Q01DX Z (ip), vehicle: methylcellulose (MC) 92 % of control

COc1cc(C(=O)c2ccccc2C(=O)O)c(OC)c2c1CCCC2
inactive: [6] 91 % of control | [7] 92 % of control | [8] 96 % of control

O=C(O)C(c1ccccc1)S(=O)(=O)C(C(=O)O)c1ccccc1 (centres undefined)
inactive: [9] 95 % of control | [10] 101 % of control | [11] 95 % of control

O=C(O)CC[P+](c1ccccc1)(c1ccccc1)c1ccccc1
inactive: [12] 90 % of control | dose: 200.0 mg/kg/injection, schedule: Q04DX003 (ip), vehicle: saline with Tween-80 98 % of control | dose: 400.0 mg/kg/injection, schedule: Q04DX003 (ip), vehicle: saline with Tween-80 93 % of control

CC1NNC(=O)C1c1ccc([N+](=O)[O-])cc1 (centres undefined)
inactive: [9] 94 % of control | [10] 94 % of control | [11] 95 % of control

CCCCCCCC(=O)CC(C)C
inactive: [13] 109 % of control | [1] 93 % of control | [14] 98 % of control | [2] 96 % of control | dose: 400.0 mg/kg/injection, schedule: Q01DX009 (ip), vehicle: Klucel (hydroxypropylcellulose) (HPC) 107 % of control | [3] 96 % of control

COc1cc(OC)c(OC)cc1/C=C/c1ccc2ccccc2n1
inactive: dose: 100.0 mg/kg/injection, schedule: Q01DX009 (ip), vehicle: saline with Tween-80 91 % of control | dose: 200.0 mg/kg/injection, schedule: Q01DX009 (ip), vehicle: saline with Tween-80 100 % of control | dose: 400.0 mg/kg/injection, schedule: Q01DX009 (ip), vehicle: saline with Tween-80 98 % of control

O=C(NOCc1cc2c(cc1Cl)OCO2)c1ccc(S(=O)(=O)F)cc1
inactive: dose: 100.0 mg/kg/injection, schedule: Q04DX003 (ip), vehicle: saline sonified 95 % of control

COC(=O)c1ccccc1NC(=O)Nc1cccc(C(F)(F)F)c1
inactive: [15] 101 % of control | [16] 92 % of control | [17] 105 % of control

CC(=O)Nc1ccccc1C(=O)C(N)=O
inactive: dose: 50.0 mg/kg/injection, schedule: Q01DX009 (ip), vehicle: Klucel (hydroxypropylcellulose) (HPC) 100 % of control | [13] 94 % of control | [1] 96 % of control | [14] 96 % of control | [2] 95 % of control | [3] 98 % of control

OC1c2ccccc2C(O)C2C3C=CC(C3)C12 (centres undefined)
inactive: dose: 50.0 mg/kg/injection, schedule: Q01DX001 (ip), vehicle: carboxymethylcellulose (CMC) 87 % of control | [6] 97 % of control | [7] 100 % of control | [8] 97 % of control

NC(CO)C(O)c1ccc(N=Nc2ccc(O)cc2)cc1 (centres undefined)
inactive: [12] 90 % of control

COC1C(O)C(CO)OC1n1cc(F)c(=O)[nH]c1=O (centres undefined)
inactive: [9] 107 % of control | [10] 104 % of control | [11] 111 % of control

O=C(Nc1ccc([As](=O)(O)O)cc1)Nc1cccc(Cl)c1Cl
inactive: [13] 100 % of control | [15] 100 % of control | [14] 100 % of control | [16] 92 % of control | [17] 110 % of control

CC(/C=C/c1ccccc1)=C1/SC(=S)NC1=O
inactive: [9] 93 % of control | [10] 96 % of control | [11] 94 % of control

CC[N+](C)(CC)CC[N+]1(C)CC2CC=CCC2C1 (centres undefined)
inactive: dose: 222.0 mg/kg/injection, schedule: Q01DX Z (ip), vehicle: saline 94 % of control | dose: 333.0 mg/kg/injection, schedule: Q01DX Z (ip), vehicle: saline 97 % of control | dose: 500.0 mg/kg/injection, schedule: Q01DX Z (ip), vehicle: saline 94 % of control

c1cc[c]([Sn]([c]2ccccc2)([c]2ccccc2)[n]2cnc3cncnc32)cc1
inactive: dose: 5.0 mg/kg/injection, schedule: Q01DX001 (ip), vehicle: other 111 % of control | dose: 10.0 mg/kg/injection, schedule: Q01DX001 (ip), vehicle: other 100 % of control

COc1cc(OC)cc(OC)c1
inactive: [1] 100 % of control | [2] 105 % of control | [3] 97 % of control

CCS(=O)(=O)c1ccc(NC(=O)Oc2ccccc2OC)cc1
inactive: [6] 89 % of control | [7] 100 % of control | [8] 100 % of control

Cc1ccc(C)c(OC2CCCCC2=O)c1 (centres undefined)
inactive: [9] 100 % of control | [10] 100 % of control | [11] 91 % of control

COC(=O)C1C(O)CN2CCCC12 (centres undefined)
inactive: [18] 93 % of control | [19] 93 % of control | [20] 93 % of control

CC(N)(CO)C(=O)O (centres undefined)
inactive: [21] 100 % of control | [22] 105 % of control | dose: 400.0 mg/kg/injection, schedule: Q01DX009 (ip), vehicle: saline 107 % of control

O=C(C[n+]1cccc2ccccc21)c1ccc(-c2ccccc2)cc1
inactive: [23] 96 % of control

NCCOc1ccc([N+](=O)[O-])cc1Cl
inactive: dose: 50.0 mg/kg/injection, schedule: Q01DX009 (ip), vehicle: saline 93 % of control | dose: 75.0 mg/kg/injection, schedule: Q01DX001 (ip), vehicle: other 96 % of control | [21] 98 % of control | [18] 121 % of control | dose: 150.0 mg/kg/injection, schedule: Q01DX001 (ip), vehicle: other 100 % of control | [22] 96 % of control | [19] 103 % of control | dose: 300.0 mg/kg/injection, schedule: Q01DX001 (ip), vehicle: other 96 % of control

c1ccc2c(c1)[nH]c1ccncc12
inactive: dose: 25.0 mg/kg/injection, schedule: Q04DX003 (ip), vehicle: saline with Tween-80 101 % of control | dose: 50.0 mg/kg/injection, schedule: Q04DX003 (ip), vehicle: saline with Tween-80 95 % of control | [12] 97 % of control

CC(CO)(CO)N=Cc1cc(I)cc(I)c1O
inactive: [6] 93 % of control | [7] 98 % of control | [8] 95 % of control

CC(C)(C)O.[Zr]
inactive: dose: 25.0 mg/kg/injection, schedule: Q01DX009 (ip), vehicle: other 108 % of control | dose: 50.0 mg/kg/injection, schedule: Q01DX009 (ip), vehicle: other 97 % of control | dose: 100.0 mg/kg/injection, schedule: Q01DX009 (ip), vehicle: other 90 % of control | [18] 96 % of control | dose: 200.0 mg/kg/injection, schedule: Q01DX009 (ip), vehicle: other 103 % of control | [19] 98 % of control | [20] 94 % of control

O=C(O)CNC(=O)Nc1cccc(Cl)c1
inactive: dose: 50.0 mg/kg/injection, schedule: Q01DX001 (ip), vehicle: Klucel (hydroxypropylcellulose) (HPC) 100 % of control | dose: 100.0 mg/kg/injection, schedule: Q01DX001 (ip), vehicle: Klucel (hydroxypropylcellulose) (HPC) 105 % of control | [23] 108 % of control

N#CC(C#N)=Cc1ccc(O)cc1
inactive: dose: 5.0 mg/kg/injection, schedule: Q01DX001 (ip), vehicle: saline 105 % of control | [4] 105 % of control | [5] 92 % of control | dose: 40.0 mg/kg/injection, schedule: Q01DX001 (ip), vehicle: saline 103 % of control | dose: 80.0 mg/kg/injection, schedule: Q01DX001 (ip), vehicle: saline 97 % of control
